Results taken from publication PMC7841309, “Involvement of the Mitochondrial Protein Tyrosine Phosphatase PTPM1 in the Promotion of Conidiation, Development, and Pathogenicity in Colletotrichum graminicola” (Frontiers in Microbiology, 2021).

Target: T1, CgPTPM1 (Colletotrichum graminicola, UniProt E3QMN0)
T1 construct: gene GLRG_07262; full-length ORF (1869 bp cDNA, 622 residues) in pET28a, His-tag, E. coli BL21, Ni-NTA, about 74 kDa
Experiment: colorimetric phosphatase assay, […] nm
Format: biochemical
Details: 0.1 M Tris, 0.25 M NaCl, 5 mM EDTA, 10 mM DTT, pH 8.2, 37 C, 30 min

T1 sequence (E3QMN0 entry or part of it): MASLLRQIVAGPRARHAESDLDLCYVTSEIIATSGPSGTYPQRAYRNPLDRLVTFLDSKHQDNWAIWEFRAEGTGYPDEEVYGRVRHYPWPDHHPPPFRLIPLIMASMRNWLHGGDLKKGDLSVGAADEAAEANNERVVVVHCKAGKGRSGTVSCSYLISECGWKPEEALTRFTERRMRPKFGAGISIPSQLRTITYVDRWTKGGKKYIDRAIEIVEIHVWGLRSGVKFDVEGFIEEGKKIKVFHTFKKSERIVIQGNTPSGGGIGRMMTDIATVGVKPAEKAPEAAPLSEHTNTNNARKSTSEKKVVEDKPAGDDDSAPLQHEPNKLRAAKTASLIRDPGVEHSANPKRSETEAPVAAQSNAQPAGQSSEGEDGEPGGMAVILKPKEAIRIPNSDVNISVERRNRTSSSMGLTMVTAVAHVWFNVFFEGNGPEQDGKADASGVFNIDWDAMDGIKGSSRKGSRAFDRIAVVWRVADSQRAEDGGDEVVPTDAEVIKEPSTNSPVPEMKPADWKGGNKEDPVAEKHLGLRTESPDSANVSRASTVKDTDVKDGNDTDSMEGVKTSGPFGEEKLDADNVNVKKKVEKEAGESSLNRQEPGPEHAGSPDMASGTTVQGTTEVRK

## O=[N+]([O-])c1ccc(OP(=O)(O)O)cc1 [pNPP, p-nitrophenyl phosphate]
  colorimetric phosphatase assay, 405 nm: Using pNPP as a substrate, the protein phosphatase activity was detected using the colorimetric method
